Key:
Format in all cases: biochemical
AtCytAPX1 = target: T1, AtCytAPX1 (Arabidopsis thaliana, UniProt Q05431); experiment: APX activity assay, in-gel and in solution; conditions: H2O2 co-substrate
T1 construct: gene APX1; ~27 kDa; MBP fusion from E. coli, MBP removed by factor Xa
T1 sequence (Q05431 1-250): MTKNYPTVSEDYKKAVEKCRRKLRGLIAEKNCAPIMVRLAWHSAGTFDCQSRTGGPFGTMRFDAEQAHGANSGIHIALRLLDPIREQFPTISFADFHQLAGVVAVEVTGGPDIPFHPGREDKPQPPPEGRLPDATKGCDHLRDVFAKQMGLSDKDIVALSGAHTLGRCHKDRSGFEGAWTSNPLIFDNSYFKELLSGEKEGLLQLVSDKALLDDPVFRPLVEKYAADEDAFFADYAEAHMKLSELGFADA

[1] = target: T2, OgCytAPX1 (Oncidium cytosolic ascorbate peroxidase 1) (Oncidium hybrid cultivar, UniProt B8XF08); experiment: enzyme kinetics, Lineweaver-Burk; conditions: H2O2 co-substrate; APX activity
T2 construct: full length, 250 residues, ~27 kDa; cloned from pseudobulb mRNA; MBP fusion (pMAL-c5x) from E. coli BL21, MBP removed by factor Xa

CytAPX1 from G. max (Gm) = target: T3, CytAPX1 from G. max (Gm) (Glycine max, UniProt Q43758); experiment: APX activity assay, in-gel and in solution; conditions: H2O2 co-substrate
T3 construct: gene apx1; recombinant from E. coli, purified
T3 sequence (Q43758 1-250): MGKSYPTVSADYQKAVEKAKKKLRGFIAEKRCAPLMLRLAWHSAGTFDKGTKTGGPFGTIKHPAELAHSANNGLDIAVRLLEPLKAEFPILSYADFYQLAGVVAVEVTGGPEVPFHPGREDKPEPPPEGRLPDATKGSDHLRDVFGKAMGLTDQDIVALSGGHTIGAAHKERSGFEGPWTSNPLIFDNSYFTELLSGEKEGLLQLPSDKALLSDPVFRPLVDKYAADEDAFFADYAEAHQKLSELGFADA

[2] = target: T4, CytAPX1 from O. sativa (Os) (Oryza sativa, UniProt Q10N21); experiment: APX activity assay, in-gel and in solution; conditions: H2O2 co-substrate
T4 construct: gene APX1; recombinant from E. coli, purified
T4 sequence (Q10N21 2-250): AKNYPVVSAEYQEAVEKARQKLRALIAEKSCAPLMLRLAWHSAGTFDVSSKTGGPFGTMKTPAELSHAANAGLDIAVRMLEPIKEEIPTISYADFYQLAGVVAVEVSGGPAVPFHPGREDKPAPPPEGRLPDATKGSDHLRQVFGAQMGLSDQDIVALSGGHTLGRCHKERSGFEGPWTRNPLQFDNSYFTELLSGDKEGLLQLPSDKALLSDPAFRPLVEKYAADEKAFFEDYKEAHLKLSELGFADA

T2 sequence (B8XF08 entry or part of it): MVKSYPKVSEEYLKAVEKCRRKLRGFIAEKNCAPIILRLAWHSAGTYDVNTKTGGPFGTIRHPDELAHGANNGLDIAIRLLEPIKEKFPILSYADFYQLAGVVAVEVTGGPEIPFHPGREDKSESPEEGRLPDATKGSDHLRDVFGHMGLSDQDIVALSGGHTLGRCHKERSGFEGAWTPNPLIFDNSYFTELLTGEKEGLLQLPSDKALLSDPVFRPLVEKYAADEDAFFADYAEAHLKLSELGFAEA

APX activity assay, in-gel and in solution (AtCytAPX1): AtCytAPX1 displayed only APX activity
Km [1]: 616 µM
SMILES: O=C1O[C@H]([C@@H](O)CO)C(O)=C1O [AsA]
APX activity assay, in-gel and in solution (CytAPX1 from G. max (Gm)): Recombinant proteins from G. max, O. sativa, and Z. mays displayed both AsA and GSH
APX activity assay, in-gel and in solution [2]: Recombinant proteins from G. max, O. sativa, and Z. mays displayed both AsA and GSH

— PMC6542772, “Plant Cytosolic Ascorbate Peroxidase with Dual Catalytic Activity Modulates Abiotic Stress Tolerances” (iScience, 2019)
